Measured values from patent US10786491B2, “Immunomodulation by IAP inhibitors” (Novartis AG, priority 2008, dated 2020).

Legend:
[1] = test system: BALB/c splenic CD4+ T cells; assay: Survival and apoptosis of anti-CD3/anti-CD28 activated CD4+ T cells; assay type: cell-based, BALB/c mice
Procedure: The role of IAP family members in mature NKT cell survival was assessed. […] After 24 hours viable cells were quantified by trypan blue exclusion, and the resulting cell counts are depicted in FIG. 2A. Apoptotic cells were quantified in the cultures from FIG. 2A using flow cytometry with annexin V and 7-AAD (results are depicted in FIG. 2B).

BALB/c spleen cells = assay: Cytokine secretion of α-galcer stimulated spleen cells (ELISA); assay type: cell-based, BALB/c mice; conditions: 500 nM, 48 hours, versus control compound
Procedure: In order to determine the functional consequences of IAP inhibition in NKT cells, spleen cells from BALB/c mice were stimulated with the NKT cell specific agonist α-galactosylceramide (α-galcer). […]. After 48 hours, cytokine levels were measured in the culture supernatants by ELISA, and the results are depicted in FIG. 3A (IFNγ) and FIG. 3B (IL-2). […].

splenic CD4+ T cells = assay: IL-2 production of anti-CD3/anti-CD28 stimulated CD4+ T cells (ELISA); assay type: cell-based, BALB/c mice
CD8+ T cells = assay: Cytokine production of stimulated CD8+ T cells (ELISA); assay type: cell-based, C57BL/6 mice; conditions: anti-CD3 and anti-CD28; 48 hours
Procedure: Because the observed effect of IAP inhibition in T cells could still depend on alterations in NKT cell function, the consequences of IAP inhibition were assessed in NKT cell deficient CD1d knockout C57BL/6 mice. […] The effect of IAP inhibition was not limited to CD4+ T cells, as CD8+ T cells similarly produced excess IFN-γ and IL-2 after stimulation in the presence of IAP inhibitors (FIG. 5).

JNK and NF-κB pathways = assay: Western blot of JNK phosphorylation and IκB degradation in stimulated CD4+ T cells; assay type: cell-based
Procedure: In order to investigate the mechanism linking IAP inhibition to enhanced, activation-dependent cytokine production, the effect of IAP inhibition on JNK phosphorylation and IκB degradation in stimulated CD4+ T cells was assessed by Western blot. […] Replicates were combined and cell lysates were analyzed by Western blot for the indicated proteins. PDI was used as a loading control.

[2] = test system: BALB/c spleen cells cultured with irradiated C57BL/6 spleen cells; assay: Allo-reactivity: six day mixed lymphocyte reaction and restimulation; assay type: cell-based, BALB/c mice; conditions: 500 nM, six days
Procedure: After six days, cultures were harvested and cytokine production and spleen cell proliferation was analyzed. […] Cytokines were measured in cell supernatants by ELISA. […] At the conclusion of the cultures described in FIG. 9A, total viable cells were counted by trypan blue exclusion and immune cell subsets were identified by flow cytometry using the markers indicated in FIG. 9B. […] Substantial B cell proliferation occurred in IAP inhibited cultures (FIG. 9B). The activation enhancing effects of IAP inhibition were readily reversed; in allo-reactive T cells, secondary stimulations with anti-CD3 in the absence of inhibitors led to equivalent responses regardless of the previous culture conditions (FIG. 10). Cells stimulated in a six day mixed lymphocyte reaction were recovered and restimulated with anti-CD3 for 48 hours. Cytokines were measured in culture supernatants by ELISA. Sample labels indicated in FIG. 10 refer to the treatment used during the primary stimulation.

[3] = test system: CD4+ T cells from MLIAP transgenic mice; assay: IL-2 production of ML-IAP transgenic CD4+ T cells (ELISA); assay type: cell-based, BALB/c mice; conditions: anti-CD3 and anti-CD28; 48 hours
Excerpt: Whether overexpression of ML-IAP, an endogenous SMAC binding protein, could alter the response of T cells to activating stimuli was also examined.

B16 mouse melanoma cells = assay: B16 vaccination and live tumor challenge in vivo; set-up: species or system mice; conditions: single oral dose 150 mg/kg in combination with irradiated B16 vaccine; compared with LBW-242 or vaccine alone; days 7-16
Procedure: . Irradiated B16 mouse melanoma cells (vaccine) were administered to mice on days −14 and −7 with or without a single oral dose of LBW-242 (150 mg/kg). Live B16 tumor cells were implanted into the mice on day 0 (challenge). Tumor volume was measured at 7, 10, 13 and 16 days following the live cell implant. […].

[4] = test system: CD4+ T cells from XIAP KO mice; assay: IL-2 production of XIAP knockout CD4+ T cells (ELISA); conditions: anti-CD3 and anti-CD28; 48 hours; versus LCV-843
[5] = test system: bone marrow derived dendritic cells; assay: IL-12 p40 production of bone marrow derived dendritic cells (ELISA); conditions: 500 nM; cluster disruption; 24 hours
B cells = conditions: 500 nM; anti-IgM and anti-CD40; 96 hours; compared to control cells
Procedure: Because the JNK and NF-κB pathways play important roles in signaling down stream of a wide range of immune receptors, we analyzed the effect of IAP inhibitors in several additional immune populations. […] IL-6 was measured in the culture supernatant by ELISA.

[6] = 500 nM, anti-CD3 and anti-CD28, 24 hours
[7] = versus control compound LCV-843

**Q.** How did the “NKT cells in culture (anti-CD3 and α-galcer loaded CD1d tetramers)” value ([1]; 500 nM, 24 hours) turn out when CN[C@H](C)C(=O)N[C@@H](C(=O)N1CCC2CCN(CCc3ccccc3)CC21)C1CCCCC1 (stereo in doubt) [LBW-242, N-[1-cyclohexyl-2-oxo-2-(6-phenethyl-octahydro-pyrrolo[2,3-c]pyridin-1-yl)-ethyl]-2-methylamino-propionamide] was run?
**A.** The value was “still detectable in culture at normal frequencies”.

**Q.** And the “apoptosis (annexin V and 7-AAD)” value [1, 6]?
**A.** The value was “nor did it contribute to apoptosis”.

**Q.** And the “total number of T cells (viable cells, trypan blue exclusion)” value [1, 6]?
**A.** The value was “did not alter”.

**Q.** And the “apoptosis in the absence of stimulation” value ([1]; no stimulation)?
**A.** The value was “no discernible effect”.

**Q.** What about the IFN-γ secretion (BALB/c spleen cells) of the same compound?
**A.** Its IFN-γ secretion is “increased secretion”.

**Q.** And the IL-2 secretion (BALB/c spleen cells)?
**A.** The IL-2 secretion was “increased secretion”.

**Q.** And the “effects from IAP inhibition in the absence of stimulation” value (splenic CD4+ T cells; isotype control, no stimulation)?
**A.** Its value is “No effects”.

**Q.** What about the IL-2 production (splenic CD4+ T cells; unfractionated BALB/c or C57BL/6 CD4+ T cells, anti-CD3 and anti-CD28, 48 hours) of the same compound?
**A.** Its IL-2 production is “similar, dose-dependent effect”.

**Q.** What about the IFN-γ production (CD8+ T cells) of the same compound?
**A.** Its IFN-γ production is “excess”.

**Q.** And the IL-2 production (CD8+ T cells)?
**A.** Its IL-2 production is “excess”.

**Q.** And the “bcl-10 levels in activated T cells” value (JNK and NF-κB pathways; 500 nM)?
**A.** Its value is “did not lead to a detectable change”.

**Q.** What about the “activation of JNK and NF-κB pathways (JNK phosphorylation, IκB degradation)” value (JNK and NF-κB pathways; 500 nM, anti-CD3 and anti-CD28, versus control compound LCV-843) of the same compound?
**A.** Its value is “activated more rapidly”.

**Q.** What about the “JNK phosphorylation and IκB degradation in the absence of stimulation” value (JNK and NF-κB pathways; no stimulation) of the same compound?
**A.** The value was “No changes”.

**Q.** What about the B cell proliferation [2] of the same compound?
**A.** Its B cell proliferation is “Substantial”.

**Q.** And the “CD4 T cell proliferation” value [2]?
**A.** The value was “significant”.

**Q.** And the IFN-γ secretion [2, 7]?
**A.** Its IFN-γ secretion is “significantly enhanced”.

**Q.** What about the IL-2 levels [2, 7] of the same compound?
**A.** Its IL-2 levels is “significantly reduced”.

**Q.** And the “reduced IL-2 secretion of ML-IAP transgenic T cells” value [3]?
**A.** The value was “could be modulated”.

**Q.** And the “tumor burden following challenge with live B16 cells” value (B16 mouse melanoma cells)?
**A.** The value was “reduced”.

**Q.** What about the “cytokine (IL-2) secretion of XIAP deficient T cells” value [4] of the same compound?
**A.** Its value is “only a small increase”.

**Q.** What about the “IL-12 p40 production, partially activated DCs” value [5] of the same compound?
**A.** Its value is “increased”.

**Q.** What about the IL-6 production (B cells) of the same compound?
**A.** Its IL-6 production is “increased”.
